Experiments:
[1] = target: T1, RIPK1 kinase (Homo sapiens, UniProt Q13546); assay: In vitro RIPK1 kinase activity IC50 assay (ADP-Glo); format: biochemical; details: ATP 10 μM; MBP substrate 100 μg/mL; 8 concentration points; read-out: IC50 range of compounds for RIPK1 kinase activity
T1 construct: purchased Promega VA7593
T1 sequence (Q13546 1-671): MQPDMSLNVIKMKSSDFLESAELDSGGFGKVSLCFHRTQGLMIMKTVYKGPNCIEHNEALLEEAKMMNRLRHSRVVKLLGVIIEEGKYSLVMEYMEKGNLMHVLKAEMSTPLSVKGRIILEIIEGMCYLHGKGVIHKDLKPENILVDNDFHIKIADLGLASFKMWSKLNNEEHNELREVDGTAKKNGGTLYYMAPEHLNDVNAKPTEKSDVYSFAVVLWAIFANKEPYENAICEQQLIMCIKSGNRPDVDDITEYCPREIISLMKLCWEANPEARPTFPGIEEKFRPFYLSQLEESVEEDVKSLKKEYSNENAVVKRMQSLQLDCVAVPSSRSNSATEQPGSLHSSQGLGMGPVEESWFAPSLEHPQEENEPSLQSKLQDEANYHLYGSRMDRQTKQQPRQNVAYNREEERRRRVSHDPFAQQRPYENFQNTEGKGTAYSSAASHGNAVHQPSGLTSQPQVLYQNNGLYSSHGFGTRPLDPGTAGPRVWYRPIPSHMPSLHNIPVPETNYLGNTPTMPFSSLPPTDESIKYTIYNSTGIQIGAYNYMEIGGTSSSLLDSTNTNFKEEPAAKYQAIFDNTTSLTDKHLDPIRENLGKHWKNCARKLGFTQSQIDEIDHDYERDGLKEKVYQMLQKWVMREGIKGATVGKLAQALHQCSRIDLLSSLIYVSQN
Summary of the method: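 Human RIPK1 preincubated 15 min at room temperature with compound (8-point 1:5 dilution series, 1% DMSO in kinase buffer D). Reaction then ran 1 h with 10 μM ATP and 100 μg/mL MBP substrate; ADP measured by ADP-Glo luminescence, IC50 from four-parameter nonlinear fit.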

[2] = system: U937 cells; assay: Inhibition rate of compound (1 μM) on necroptosis of U937 cells (TSZ-induced, CellTiter-Glo); format: cell-based; details: TSZ (hTNF-α, SM-164, Z-VAD-FMK) 20 hours
Summary of the method: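 U937 cells were pretreated 15 min with compound, then necroptosis was triggered with TSZ (Z-VAD-FMK, hTNF-α, SM-164) for 20 h at 37° C. Viability was read as ATP by CellTiter-Glo luminescence, and inhibition (%) was taken relative to no-TSZ and TSZ-only wells.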

| Compound | IC50 [1] [µM] | Inhibition rate range of compounds (1 μM) on U937 cell necroptosis [2] |
| --- | --- | --- |
| COC(=O)C1(C#Cc2ccc3c(c2)N(C)C(=O)[C@@H](NC(=O)C(=O)NCCc2ccccc2)CO3)CC1 [Example 96, methyl (S)-1-((5-methyl-4-oxo-3-(2-oxo-2-(phenethylamino)acetamido)-2,3,4,5-tetrahydrobenzo[b][1,4]oxazepin-7-yl)ethynyl)cyclopropane-1-carboxylate] | < 0.1 | B (B: 50-89%) |
| CN1C(=O)[C@@H](NC(=O)C(=O)NCCc2cccs2)COc2ccccc21 [Example 97, (S)—N^1-(5-methyl-4-oxo-2,3,4,5-tetrahydrobenzo[b][1,4]oxazepin-3-yl)-N^2-(2-(thiophen-2-yl)ethyl)oxalamide] | < 0.1 | A (A: ≥90%) |
| CN1C(=O)[C@@H](NC(=O)C(=O)NCCc2ccsc2)COc2ccccc21 [Example 98, (S)—N-(5-methyl-4-oxo-2,3,4,5-tetrahydrobenzo[b][1,4]oxazepin-3-yl)-N^2-(2-(thiophen-3-yl)ethyl)oxalamide] | < 0.1 | A (A: ≥90%) |

Source: patent US20250368633A1, “AZEPINE FUSED RING COMPOUND AS RIPK1 INHIBITOR AND USE THEREOF” (ARTIVILA BIOPHARMA, priority 2022, published 2025)
